Data reported in patent publication US20080033041A1, “USE OF PHENYLETHANOLAMINOTETRALINES FOR PREPARING ANXIOLYTIC DRUGS” (SANOFI-AVENTIS, priority 2004, published 2008).

Legend:
[1] = tested on: Sprague-Dawley and Wistar rats; assay: Punished Drinking test; format: in vivo, rat; conditions: 10 mg/kg i.p., 30 minutes after injection, 5-minute period, control 10
Method: 4) The Punished Drinking Test (Griebel et al., (2002), ibid.) Male Sprague-Dawley and Wistar rats (Iffa Credo, L'Arbresle, and Charles River, Saint-Aubin-lès-Elbeuf, France), weighing 180 to 250 g were used. Experiments were performed 30 minutes after i.p. injection of 10 mg/kg of the drug or vehicle. The procedure was a modification of the technique described by Vogel et al., Psychopharmacologia, (1971), 21, p. 1-7. At the beginning of the experiment, rats, deprived of water but not of food for 48 hours prior to testing, were placed in cages (32×25×30 cm) with a stainless steel grid floor. Each cage was placed in sound-attenuated boxes that were well ventilated and contained a drinking tube connected to an external 50 mL burette filled with tap water. Trials were started only after the animal's tongue entered in contact with the drinking tube for the first time. An electric shock (0.6 mA/500 ms) was delivered to the tongue after every twenty licks. The number of shocks was recorded automatically during a 5-minute period. Subsequent comparisons between treatment groups and control were carried out using Dunnett's t-test.

[2] = tested on: rats of the Wistar strain; assay: Novelty Induced Grooming Test; format: in vivo, rat; conditions: 10 mg/kg i.p., 30 min before test, 30-minute session, control 37 (±3.61)
Method: 1) The Novelty Induced Grooming Test
(Gipsen et al., (1975), ibid.)
Male rats of the Wistar strain (purchased from Morini, Italy) weighing from 200 to 220 g were used throughout this test. All animals were gently manipulated by experienced facilities' handlers, avoiding any environmental or physical stress. Compounds according to the invention to be tested were injected intraperitoneally (i.p.) to a group of rats at a dosage 10 mg/kg. Control animals received i.p. the same volume of the vehicle (i.e, physiological saline). […]
Rats were placed individually into plexiglas boxes (24×12×24 cm) in a low noise room. After a minute of adaptation, the behaviour of the rats was sampled every 15 seconds, and the occurrence of grooming was recorded in a session of 30 minutes. The occurrence of the following single elements of grooming was scored as grooming: washing (i.e., vibrating movements of the fore paws in front of the snout and licking of the same paws leading to a series of strokes along the snout and semicircular movements over the top of the head), scratching (that is scratching of the body by one of the limbs), licking (that is licking of the body fur, limbs and tail), and genital grooming (that is licking of genital area). Grooming behaviour of all animals was recorded on a tape using a video-camera (Hitachi Videocam) and then replayed and scored by two independent observers. […]

Mongolian gerbils = assay: Social Interaction test; format: in vivo, gerbil; conditions: 10 mg/kg p.o., 1 hour after administration, control 30 seconds
Method: 5) The Social Interaction Test (Salomé et al., Sanofi-Synthelabo Research, CNS Department, Bagneux, France, ibid.) Male Mongolian gerbils (7-week old, 50-60 g, CERJ, France) were used. Experiments were performed 1 hour after per os (p.o.) administration of 10 mg/kg of the drug or vehicle. The procedure was based on that described initially by File et al., Brain Res., (2001), 888, p. 311-313. Testing lasting two days. On day 1, gerbils were placed individually in a plastic box (30×30×20 cm) under high light conditions (300 lux) for a 10-minute free-exploration period to familiarize with the apparatus. Twenty-four hours later, two gerbils of the same weight but unfamiliar to each other were placed together in the box they had previously explored for a 4 minute 30 seconds observation period. Interaction time (sniffing, chasing, grooming the partner) was recorded manually for each pair of gerbils. Locomotor activity (distance travelled in centimetres) was measured with an automated tracking system (Ethovision, Noldus).

[3] = tested on: rats of the Wistar strain; assay: Elevated Plus Maze test; format: in vivo, rat; conditions: 10 mg/kg i.p., 5 minutes observation
Source text: 2) The Elevated Plus Maze Test (Pellow S. et al., Journal of Neuroscience Methods, (1985), 14(3), p.149-67) The animals, their preparation and the i.p. dosage of compound to be tested are the same as those described in the Novelty Induced Grooming test. The apparatus consisted of a plus-shaped maze, elevated of 50 centimetres from the floor, with two opposite open arms (50×10 cm) crossed at right angles by two arms of the same dimensions, but enclosed by 40-centimetre high walls with an open roof. In addition, a 1-centimetre high edge made of plexiglas surrounded the open arms to avoid falls. Illumination measured at the centre of the maze was 40 lux. After treatment, the animal was placed at the centre of the plus maze with its nose in the direction of one of the closed arms, and observed for 5 minutes, according to the following parameters: number of entries in the open and closed arms (this parameter can also be expressed by means of percentage of entries in the open arms), and time of presence in each of them (this parameter can also be expressed by means of percentage of time stayed in the open arms. The time of presence measures the time spent by the animal in the open and closed arms. The animals were divided into four groups with 7 animals per group.

OF1 mice = assay: Mouse Defense test Battery; format: in vivo; conditions: 1 hour after administration
Method: 6) The Mouse Defense test Battery (Griebel et al., (2002), ibid.) Male OF1 mice weighing 17 to 32 g were supplied by Charles River, Iffa Credo or Janvier (Le Genest, France). Experiments were performed 1 hour after p.o. administration of 0.3 mg/kg or 3 mg/kg of the drug or vehicle. The test was conducted in an oval runway as described (Griebel et al., 1997), 23, p. 19-31). Tested mice were submitted to a 3-minute familiarization period sixty minutes after p.o. administration of compound A. (a) The rat avoidance test/flight: Immediately after the 3-minute familiarization period, the experimenter introduced a hand-held dead rat (killed by CO2 inhalation just before the beginning of the experiment) five times at one end of the runway. The following parameter was recorded: avoidance distance (cm). (b) Risk Assessment/Chase Test: The rat was then brought up to the subject at a speed of approximately 2 m/s. A constant distance of 2 meters separated the rat and the subject when the former was introduced in the runway. The following parameter was recorded: number of stops (pauses in movement). The rat was removed after the chase was completed. (c) Defensive Aggression/Straight Alley: By the closing of two doors (60 cm distant from each other), the runway was then converted to a straight alley in which the subject was constrained. The experimenter brought the rat up to contact the subject in the straight alley. Approaches were directed quickly (within 1 second) to the subject's head. For each such contact, bites by the subjects were recorded.

[4] = tested on: rats of the Wistar strain; assay: Ultrasonic Vocalizations (USVs) test; format: in vivo, rat; conditions: 10 mg/kg i.p.
Source text: 3) The Ultrasonic Vocalizations (USVs) Test
(Molewijk et al., Psychopharmacology, (1996),128, p. 31-38)
The animals, their preparation and the i.p. dosage of compound to be tested are the same as those described in the Novelty Induced Grooming test.
This test consists of two different sessions: training and testing sessions. In the training procedure, all animals were trained for 2 days prior to testing. Training consisted of placing the animal in a standard operant chamber (ENV-018M, Med Associates, Georgia, Vt.) where shock could be delivered from a programmable shocker (Model ENV-413, Med Associates) and where it is equipped with an ultrasonic detector (Mini-3 Bat Detector, Ultra Sound Advice, UK). On each of two consecutive days, all the animals received 20 shocks (1 mA, 4 seconds) separated by a random interval that averaged 60 seconds and ranging from 30 to 90 seconds. Each shock was administered concurrently with a 4-Watt light and an acoustic tone (85 dB, 4 s). The chamber was dark between each shock presentation.
On the day following training, animals were administered 10 mg/kg of compound A and placed in the operant apparatus for testing. […] USVs (18-22 KHz) were recorded over the intertrial interval and were expressed as a sum of total time spent vocalizing for each animal. […]

Question: How did the “Number of shocks (punished responding)” value [1] turn out when CCOC(=O)COc1ccc2c(c1)C[C@@H](NC[C@H](O)c1cccc(Cl)c1)CC2.Cl [compound A, ethyl [(7S) 7-[(2R) 2-(3-chlorophenyl)-2-hydroxyethylamino]-5,6,7,8-tetrahydronaphthalen-2yloxy]-acetate hydrochloride] was run?
Answer: 30 shocks

Question: And the “Number of grooming episodes” value [2]?
Answer: 17.71 (±5.91)

Question: And the Social interaction time (Mongolian gerbils)?
Answer: 70 s

Question: What about the “mean number of entries into the open arms” value ([3]; control 4) of the same molecule?
Answer: 7

Question: What about the “percentage of time in the open arms” value ([3]; control 32%) of the same molecule?
Answer: 42%

Question: What about the “percentage of entries into the open arms” value ([3]; control 40%) of the same molecule?
Answer: 50%

Question: What about the “mean time spent in the open arms” value ([3]; control 78 seconds) of the same molecule?
Answer: 98 s

Question: What about the “Number of bites (defensive aggression/straight alley)” value (OF1 mice; 0.3 mg/kg p.o., control about 2.75 times) of the same molecule?
Answer: about 1.3 times

Question: And the “Number of stops (risk assessment/chase test)” value (OF1 mice; 3 mg/kg p.o., control 9 stops)?
Answer: 6 stops

Question: What about the “Avoidance distance (rat avoidance test/flight)” value (OF1 mice; 3 mg/kg p.o., control 120 cm) of the same molecule?
Answer: 75 cm

Question: What about the “decrease of conditioned USVs versus control” value [4] of the same molecule?
Answer: ~50%

Question: What about the “Conditioned USVs duration (total time spent vocalizing)” value ([4]; control more than 210 seconds) of the same molecule?
Answer: < 120 s
